Source: patent US20260042731A1, “(2,4-DICHLOROPHENOXY)ACETIC ACID ANALOGS” (CORTEVA AGRISCIENCE LLC, priority 2022, published 2026)
Like-named read-outs stand apart in the source and are kept apart here.

Columns and labels:
[1] = system: glyphosate resistant Conyza canadensis (L.) (ERICA), horseweed; experiment: Postemergence herbicide evaluation, growth of Conyza canadensis (ERICA); type: in vivo; settings: Erigeron canadensis, post-emergence, read-out: Ave. ERICA
[2] = system: weeds (ABUTH, AMATA, AMBEL, CHEAL, ERICA); experiment: Postemergence herbicide evaluation, overall average % weed control across ABUTH, AMATA, AMBEL, CHEAL, ERICA; type: in vivo; settings: post-emergence, average over the five weeds, read-out: Overall Ave % Weed Control; for pest or weed control at 280 g/ha: 280 g ae/ha; for pest or weed control at 560 g/ha: 560 g ae/ha
[3] = system: Chenopodium album (CHEAL), common lambsquarters; experiment: Postemergence herbicide evaluation, growth of Chenopodium album (CHEAL); type: in vivo; settings: Chenopodium album, post-emergence, read-out: Ave. CHEAL
[4] = system: Ambrosia artemisiifolia (AMBEL), common ragweed; experiment: Postemergence herbicide evaluation, growth of Ambrosia artemisiifolia (AMBEL); type: in vivo; settings: Ambrosia artemisiifolia, post-emergence, read-out: AVE. AMBEL
[5] = system: Amaranthus rudis (AMATA), tall water hemp; experiment: Postemergence herbicide evaluation, growth of Amaranthus rudis (AMATA); type: in vivo; settings: Amaranthus tuberculatus, post-emergence, read-out: Ave. AMATA
[6] = system: Abutilon theophrasti (ABUTH), velvetleaf; experiment: Postemergence herbicide evaluation, growth of Abutilon theophrasti (ABUTH); type: in vivo; settings: Abutilon theophrasti, post-emergence, read-out: AVE. ABUTH
[7] = Volatility of compounds measured by thermogravimetric analysis (TGA); type: physicochemical
[8] = 168 h, 280 g ae/ha, 7 DAA, percent reduction in plant size relative to untreated control
[9] = 168 h, 560 g ae/ha, 7 DAA, percent reduction in plant size relative to untreated control
[10] = 336 h, 280 g ae/ha, 14 DAA, percent reduction in plant size relative to untreated control
[11] = 336 h, 560 g ae/ha, 14 DAA, percent reduction in plant size relative to untreated control
[12] = 504 h, 280 g ae/ha, 21 DAA, percent reduction in plant size relative to untreated control
[13] = 504 h, 560 g ae/ha, 21 DAA, percent reduction in plant size relative to untreated control

CN(NC(=O)COc1ccc(Cl)cc1Cl)C(=O)c1ccccc1 [Compound D9, N′-(2-(2,4-Dichlorophenoxy)acetyl)-N-methylbenzohydrazide]
pest or weed control at 280 g/ha [1, 8]: 65% | pest or weed control at 560 g/ha [1, 9]: 68% | pest or weed control at 280 g/ha [1, 10]: 83% | pest or weed control at 560 g/ha [1, 11]: 88% | pest or weed control at 280 g/ha [1, 12]: 94% | pest or weed control at 560 g/ha [1, 13]: 65% | pest or weed control at 280 g/ha ([2]; 168 h, 7 DAA): 60% | pest or weed control at 560 g/ha ([2]; 168 h, 7 DAA): 63% | pest or weed control at 280 g/ha ([2]; 336 h, 14 DAA): 72% | pest or weed control at 560 g/ha ([2]; 336 h, 14 DAA): 75% | pest or weed control at 280 g/ha ([2]; 504 h, 21 DAA): 80% | pest or weed control at 560 g/ha ([2]; 504 h, 21 DAA): 75% | pest or weed control at 280 g/ha [3, 8]: 65% | pest or weed control at 560 g/ha [3, 9]: 65% | pest or weed control at 280 g/ha [3, 10]: 73% | pest or weed control at 560 g/ha [3, 11]: 78% | pest or weed control at 280 g/ha [3, 12]: 95% | pest or weed control at 560 g/ha [3, 13]: 90% | pest or weed control at 280 g/ha [4, 8]: 60% | pest or weed control at 560 g/ha [4, 9]: 73% | pest or weed control at 280 g/ha [4, 10]: 83% | pest or weed control at 560 g/ha [4, 11]: 94% | pest or weed control at 280 g/ha [4, 12]: 85% | pest or weed control at 560 g/ha [4, 13]: 99% | pest or weed control at 280 g/ha [5, 8]: 65% | pest or weed control at 560 g/ha [5, 9]: 68% | pest or weed control at 280 g/ha [5, 10]: 75% | pest or weed control at 560 g/ha [5, 11]: 70% | pest or weed control at 280 g/ha [5, 12]: 83% | pest or weed control at 560 g/ha [5, 13]: 73% | pest or weed control at 280 g/ha [6, 8]: 43% | pest or weed control at 560 g/ha [6, 9]: 43% | pest or weed control at 280 g/ha [6, 10]: 45% | pest or weed control at 560 g/ha [6, 11]: 48% | pest or weed control at 280 g/ha [6, 12]: 45% | pest or weed control at 560 g/ha [6, 13]: 50% | TGA Data (rate of weight loss, volatility) [7]: 0.2 µg/min

O=C(COc1ccc(Cl)cc1Cl)Nc1ccc(Cl)cc1 [Compound D6, N-(4-Chlorophenyl)-2-(2,4-dichlorophenoxy)acetamide]
pest or weed control at 280 g/ha ([1]; 168 h): 65% | pest or weed control at 560 g/ha ([1]; 168 h): 60% | pest or weed control at 280 g/ha ([1]; 336 h): 83% | pest or weed control at 560 g/ha ([1]; 336 h): 78% | pest or weed control at 280 g/ha ([1]; 504 h): 83% | pest or weed control at 560 g/ha ([1]; 504 h): 75% | pest or weed control at 280 g/ha ([2]; 168 h, 7 DAA): 60% | pest or weed control at 560 g/ha ([2]; 168 h, 7 DAA): 63% | pest or weed control at 280 g/ha ([2]; 336 h, 14 DAA): 68% | pest or weed control at 560 g/ha ([2]; 336 h, 14 DAA): 70% | pest or weed control at 280 g/ha ([2]; 504 h, 21 DAA): 71% | pest or weed control at 560 g/ha ([2]; 504 h, 21 DAA): 65% | pest or weed control at 280 g/ha ([3]; 168 h): 60% | pest or weed control at 560 g/ha ([3]; 168 h): 73% | pest or weed control at 280 g/ha ([3]; 336 h): 65% | pest or weed control at 560 g/ha ([3]; 336 h): 75% | pest or weed control at 280 g/ha ([3]; 504 h): 68% | pest or weed control at 560 g/ha ([3]; 504 h): 68% | pest or weed control at 280 g/ha ([4]; 168 h): 58% | pest or weed control at 560 g/ha ([4]; 168 h): 58% | pest or weed control at 280 g/ha ([4]; 336 h): 78% | pest or weed control at 560 g/ha ([4]; 336 h): 68% | pest or weed control at 280 g/ha ([4]; 504 h): 88% | pest or weed control at 560 g/ha ([4]; 504 h): 63% | pest or weed control at 280 g/ha ([5]; 168 h): 68% | pest or weed control at 560 g/ha ([5]; 168 h): 63% | pest or weed control at 280 g/ha ([5]; 336 h): 84% | pest or weed control at 560 g/ha ([5]; 336 h): 70% | pest or weed control at 280 g/ha ([5]; 504 h): 80% | pest or weed control at 560 g/ha ([5]; 504 h): 65% | pest or weed control at 280 g/ha ([6]; 168 h): 50% | pest or weed control at 560 g/ha ([6]; 168 h): 60% | pest or weed control at 280 g/ha ([6]; 336 h): 33% | pest or weed control at 560 g/ha ([6]; 336 h): 58% | pest or weed control at 280 g/ha ([6]; 504 h): 35% | pest or weed control at 560 g/ha ([6]; 504 h): 53% | TGA Data (rate of weight loss, volatility) [7]: 0.02 µg/min

O=C(COc1ccc(Cl)cc1Cl)OCOC(=O)c1ccccc1 [Compound E7, (2-(2,4-Dichlorophenoxy)acetoxy)methyl benzoate]
pest or weed control at 280 g/ha ([1]; 168 h): 65% | pest or weed control at 560 g/ha ([1]; 168 h): 70% | pest or weed control at 280 g/ha ([1]; 336 h): 83% | pest or weed control at 560 g/ha ([1]; 336 h): 88% | pest or weed control at 280 g/ha ([1]; 504 h): 93% | pest or weed control at 560 g/ha ([1]; 504 h): 95% | pest or weed control at 280 g/ha ([2]; 168 h, 7 DAA): 71% | pest or weed control at 560 g/ha ([2]; 168 h, 7 DAA): 78% | pest or weed control at 280 g/ha ([2]; 336 h, 14 DAA): 85% | pest or weed control at 560 g/ha ([2]; 336 h, 14 DAA): 90% | pest or weed control at 280 g/ha ([2]; 504 h, 21 DAA): 88% | pest or weed control at 560 g/ha ([2]; 504 h, 21 DAA): 89% | pest or weed control at 280 g/ha ([3]; 168 h): 68% | pest or weed control at 560 g/ha ([3]; 168 h): 75% | pest or weed control at 280 g/ha ([3]; 336 h): 73% | pest or weed control at 560 g/ha ([3]; 336 h): 93% | pest or weed control at 280 g/ha ([3]; 504 h): 70% | pest or weed control at 560 g/ha ([3]; 504 h): 70% | pest or weed control at 280 g/ha ([4]; 168 h): 63% | pest or weed control at 560 g/ha ([4]; 168 h): 78% | pest or weed control at 280 g/ha ([4]; 336 h): 93% | pest or weed control at 560 g/ha ([4]; 336 h): 97% | pest or weed control at 280 g/ha ([4]; 504 h): 96% | pest or weed control at 560 g/ha ([4]; 504 h): 100% | pest or weed control at 280 g/ha ([5]; 168 h): 78% | pest or weed control at 560 g/ha ([5]; 168 h): 80% | pest or weed control at 280 g/ha ([5]; 336 h): 95% | pest or weed control at 560 g/ha ([5]; 336 h): 85% | pest or weed control at 280 g/ha ([5]; 504 h): 93% | pest or weed control at 560 g/ha ([5]; 504 h): 89% | pest or weed control at 280 g/ha ([6]; 168 h): 80% | pest or weed control at 560 g/ha ([6]; 168 h): 85% | pest or weed control at 280 g/ha ([6]; 336 h): 84% | pest or weed control at 560 g/ha ([6]; 336 h): 89% | pest or weed control at 280 g/ha ([6]; 504 h): 90% | pest or weed control at 560 g/ha ([6]; 504 h): 92% | TGA Data (rate of weight loss, volatility) [7]: 1.5 µg/min
